This is an account of results in paper PMC6704710, “Preclinical evaluation of 3D185, a novel potent inhibitor of FGFR1/2/3 and CSF-1R, in FGFR-dependent and macrophage-dominant cancer models” (Journal of Experimental & Clinical Cancer Research : CR, 2019).

Assay [1] deals with BMDM (CSF-2). The assay can be described thus: Macrophage survival (CCK-8). It is filed as cell-based, murine. The conditions noted are these: 7 days. On the procedure:
(§1) Murine bone marrow-derived macrophages (BMDMs) and PBMCs were used for cell viability studies. BMDMs were harvested by flushing the tibias and femurs of 6- to 8-week-old C57BL/6 mice and depleting red blood cells (RBCs) by RBC lysis (Biogems). For BMDM survival, the cells were cultured for 7 days in RPMI 1640 containing 10% fetal bovine serum (FBS), 100 U/mL penicillin, 100 μg/mL streptomycin and 100 ng/mL mouse CSF-1 (or CSF-2) with or without the tested compounds. PBMCs were obtained from HemaCare and cultured for 7 days in RPMI 1640 containing 10% fetal bovine serum (FBS), 100 U/mL penicillin, 100 μg/mL streptomycin and 100 ng/mL human CSF-1 (or CSF-2) with or without the tested compounds. Cell viability was measured using the CCK-8 assay. For IL-4/IL-13-induced macrophage survival analysis, viable cells were counted by trypan blue exclusion.

Assay [2] deals with BMDM (CSF-1). The assay can be described thus: Macrophage survival (CCK-8). In kind it is cell-based, murine. The settings on record: 7 days, mean ± SD. On the procedure:
(§2) Murine bone marrow and human monocytes were stimulated with CSF-1 for 7 days together with the indicated inhibitor, and cell viability was evaluated by the CCK-8 assay. The IC50 values are shown as the mean ± SD (nM) from two independent tests. B-E, To test the impact of 3D185 on the polarization of CSF-1-induced macrophages, murine bone marrow cells and human monocytes were induced to mature into macrophages with CSF-1 for 7 days and then stimulated with CSF-1, IL-4 and IL-13 for an additional 48 h. The expression of the markers MHC-II (b), CD86 (c), and CD206 (d) on induced murine macrophages and CD206 expression on induced human macrophages (e) were determined by flow cytometry, and the mean fluorescence intensity (MFI) was analyzed with FlowJo. Representative data from two independent experiments. f Murine bone marrow cells (left panel) and human monocytes (right panel) were induced to mature into macrophages with CSF-1 for 7 days and then stimulated with CSF-1, IL-4 and IL-13 and treated with vehicle or the indicated inhibitor for an additional 48 h. Then, all cells were collected to count viable cells by staining with trypan blue
as §1

Assay [3] has as its system PBMC (CSF-2). The assay can be described thus: Macrophage survival (CCK-8). In kind it is cell-based. The settings on record: Homo sapiens, 168 h, 7 days. As to the method:
as §1

Assay [4] has as its system PBMC (CSF-1). Nature of the assay: Macrophage survival (CCK-8). It is filed as cell-based. The settings on record: Homo sapiens, 168 h, 7 days, mean ± SD. On the procedure:
as §2
Murine bone marrow-derived macrophages (BMDMs) and PBMCs were used for cell viability studies. […] Cell viability was measured using the CCK-8 assay. For IL-4/IL-13-induced macrophage survival analysis, viable cells were counted by trypan blue exclusion.

The test system of assay [5] is MC38 colorectal adenocarcinoma model. Nature of the assay: In vivo antitumor activity, MC38 model. The arrangement: species or system C57BL/6 mice. The conditions noted are these: oral once daily 23 days. On the procedure:
For the MC38 xenograft model, 6-week-old C57BL/6 mice were housed and maintained under specific pathogen-free conditions. Tumor cells (2 × 10^6 in 200 μL) were injected subcutaneously (s.c.) into the right flanks of C57BL/6 mice. […] The tumors were measured twice per week using a microcaliper. Tumor volume (TV) was calculated as follows: TV = (length × width^2)/2. In addition, the individual relative tumor volume (RTV) was calculated as follows: RTV = Vt / V0, where Vt is the volume on a particular day and V0 is the volume at the beginning of the treatment. The RTV is shown on the indicated days as the […] ± SEM for the indicated groups of mice.

Assay [6] deals with CSF-1-differentiated macrophages induced RT112 cell migration. Nature of the assay: Tumor cell migration assay (Transwell co-culture). In kind it is cell-based, human. The conditions noted are these: 25 nM, 24 h.
The test system of assay [7] is NCI-H1581. The assay can be described thus: Cell proliferation assay. In kind it is cell-based, human. The conditions noted are these: 72 h, mean ± SD. As to the method:
(§3) The cancer cell lines indicated in Figure 3 were seeded in 96-well plates at a low density in growth medium. The next day, appropriate controls or the designated concentrations of the compounds were added to each well, and the cells were incubated for 72 h. HUVECs (passage 3) were seeded in 96-well plates in growth medium overnight and transferred to serum-free medium for 24 h. The following day, appropriate controls or the designated concentrations of the compounds were added to each well, and 100 ng/mL growth factor (bFGF or VEGF) was added to the indicated wells. The cells were incubated for 48 h. Finally, cell proliferation was determined using a sulforhodamine B (SRB) assay or a cell counting kit-8 (CCK-8) assay. […] IC50 values for proliferation curves were calculated using a 4-parameter logistic nonlinear regression model with SoftMax Pro Software (Molecular Devices, San Jose, USA).

For assay [8], the system named is SUM52PE. The assay can be described thus: Cell proliferation assay. In kind it is cell-based, human. The conditions noted are these: 72 h, mean ± SD. As to the method:
as §3

The test system of assay [9] is RT112. Nature of the assay: Cell proliferation assay. The conditions noted are these: 72 h, mean ± SD. It is filed as cell-based, human. On the procedure:
as §3

Assay [10] concerns OPM2. Nature of the assay: Cell proliferation assay. The conditions noted are these: 72 h, mean ± SD. In kind it is cell-based, human. As to the method: as §3
In assay [11] the test system is NCI-H716. Nature of the assay: Cell proliferation assay. The conditions noted are these: 72 h, mean ± SD. In kind it is cell-based, human. As to the method: as §3
In assay [12] the test system is SNU16. Nature of the assay: Cell proliferation assay. It is filed as cell-based, human. The settings on record: 72 h, mean ± SD. As to the method: as §3
Assay [13] relates to KATOIII. The assay can be described thus: Cell proliferation assay. In kind it is cell-based, human. The settings on record: 72 h, mean ± SD. On the procedure: as §3
For assay [14], the system named is HUH7. Nature of the assay: Cell proliferation assay. It is filed as cell-based, human. The conditions noted are these: 72 h, mean ± SD. On the procedure:
as §3

Assay [15] has as its system KG-1. Nature of the assay: Cell proliferation assay. It is filed as cell-based, human. The settings on record: 72 h, mean ± SD. As to the method: as §3
Assay [16] has as its system UMUC14. The assay can be described thus: Cell proliferation assay. It is filed as cell-based, human. The settings on record: 72 h, mean ± SD. As to the method: as §3
In assay [17] the test system is M-NFS-60. Nature of the assay: Cell proliferation assay. It is filed as cell-based, mouse. The settings on record: 72 h, mean ± SD. On the procedure: as §3

Bounds are passed on as bounds.

As usually defined, the IC50 is the concentration needed to halve the response being measured. Take `FC(F)(F)c1ccc(CNc2ccc(Cc3c[nH]c4ncc(Cl)cc34)cn2)cn1` [PLX3397, reference compound]: the concentration for half-maximal inhibition (IC50) is more than 1000 nM in [1] (Mus musculus, BMDM, 168 h); 195 ± 48.2 nM in assay [2] (Mus musculus, BMDM, 168 h); more than 1000 nM in [3]; 220 ± 38.6 nM in [4]. In addition, in [5], the “effect on MC38 tumor growth” value is listed as “delayed tumor growth”. In addition, in assay [6], the “effect on macrophage-induced RT112 cell migration” value is “no inhibitory effect”.

For AZD4547 [reference compound], the half-inhibitory concentration (IC50) in assay [1] was more than 1000 nM; in [2] it was 883 ± 133 nM; in assay [7], 43.8 ± 8.6 nM; in assay [8] it was 15.5 ± 2.4 nM; in assay [9], 83.3 ± 6.4 nM; in assay [10], 33 ± 7.6 nM. The IC50 is 7 ± 0.9 nM in assay [11]; 2.7 ± 0.4 nM in assay [12]; 15.1 ± 2.9 nM in assay [13]; 284 ± 22.5 nM in assay [14]; 3 ± 0.3 nM in assay [15]; 52.9 ± 4.6 nM in assay [16]. Besides, in [17], 1230 ± 184 nM corresponded to half-maximal inhibition (IC50).
